This is an account of results in patent publication US12564585B2, “Nutraceuticals having sustained release for improved bioavailability and method of production” (BioActives LLC, priority 2013, dated 2026).

Structures are written as SMILES.

Series [1] in a line: Resveratrol-SR dissolution test (SGF then SIF). In kind it is physicochemical. Particulars: sink conditions, SGF 2 hr then SIF pH 6.5, 25 mg Resveratrol. As for the experimental part:
The in vitro dissolution study was performed using the Varian 7020 dissolution tester with the basket configuration at 37° C., 100 rpm. The samples equivalent to 25 mg Resveratrol filled in hard gelatin capsules were used for the study. The capsules were introduced into 750 ml of 0.1N HCl (simulated gastric fluid without enzymes, SGF) maintained at 37° C. […] The removed volume was replaced each time with fresh medium. […] Polysorbate 80 dissolved in 55 ml of water was added to a concentration of 0.25% to simulate intestinal fluid. Aliquots were withdrawn at 4, 6, 9, and 12 hrs for analysis as described before and the removed volume was replaced with fresh medium each time. The aliquots were diluted with methanol for HPLC analysis. Resveratrol was quantified using reverse-phase HPLC on a Phenomenex Prodigy column (250×4.6 mm, 5 μm) at room temperature. The samples were eluted using an isocratic mobile phase consisting of 5% acetic acid/55% and methaniol/45%. The flow rate was 1 ml/min and detection wavelength was 306 nm. The retention time for Resveratrol was 7.5 min under these conditions. Standard Resveratrol from Sigma was used for calibration.

Series [2] can be described thus: Resveratrol-SR bioavailability pilot human uptake study. It is filed as in vivo. Particulars: plasma free Resveratrol, 500 mg oral, 0-24 hr. As for the experimental part:
Resveratrol-SR formulation and 98% Resveratrol powder equivalent to 500 mg Resveratrol were used for the study. The samples were provided in hard gelatin capsules. The crossover study was done using two healthy subjects who were not consuming Resveratrol supplements. The subjects were asked not to consume Resveratrol containing foods, such as, peanuts grapes and wine, for 48 hours before the study. On the day of the study, 7 ml of blood was collected in EDTA tubes to permit establishment of baseline value. Resveratrol-SR capsules were administered after breakfast and blood samples were drawn as before at 1, 2, 4, 7, 9, and 24 his post-dose. The samples were stored on ice protected from light and the plasma was separated by centrifugation within 1 hr of collection and stored at −70° C. until analysis. After a 7-day washout period the protocol was repeated for the control Resveratrol powder capsules. Plasma total Resveratrol (Resveratrol conjugates and free Resveratrol) and free Resveratrol were determined based on the method described by Meng et al. (Urinary and plasma levels of resveratrol and quercetin in humans, mice and rats after ingestion of pure compounds and grape juice, J. Agric. Food Chem., 52: 935-942, 2004). […] Resveratrol was quantified using reverse-phase HPLC as described above.

Series [3] in a line: Curcumin-SR dissolution test (SGF then SIF). Particulars: simulated gastric and intestinal fluids. In kind it is physicochemical. On the procedure:
The in vitro dissolution study was performed using the Varian 7020 dissolution tester with the basket configuration at 37° C., 100 rpm. The samples equivalent to 25 mg Curcumin filled in hard gelatin capsules were used for the study. The capsules were introduced into 750 ml of 0.1N HCl (simulated gastric fluid without enzymes, SGF) maintained at 37° C. At the end of 1 and 2 hrs, 3 ml of the sample was withdrawn and filtered through 10μ-syringe filter. The removed volume was replaced each time with fresh medium. At the end of 2 hr, the pH of the medium was adjusted to 6.5 (simulated intestinal fluid without enzymes, SIF) with 195 ml of 0.2M tribasic sodium phosphate solution equilibrated to 37° C. Polysorbate 80 dissolved in 55 ml of water was added to a concentration of 0.25% to simulate intestinal fluid. Aliquots were withdrawn at 4, 6, 9, and 12 hrs for analysis, as described before, and the removed volume was replaced with fresh medium each time. The aliquots were diluted with methanol for the HPLC analysis of Curcumin. Curcumin was quantified using reverse-phase HPLC on a Phenomenex Luna column (150×4.6 mm, 5 μm) at room temperature. The samples were eluted using an isocratic mobile phase consisting of 5% acetic acid/45% and acetronitrile/55%. The flow rate was 1 ml/min and detection wavelength was 420 nm. Standard Curcumin from Chromadex was used for quantification. […]

The nature of series [4]: Curcumin-SR bioavailability pilot human uptake study. It is filed as in vivo. The following applies: plasma Curcumin, 250 mg total Curcuminoids oral, 0-9 hr. On the procedure:
(§1) Curcumin-SR formulation and Curcumin powder equivalent to 250 mg total Curcuminoids were used for the study. The samples were provided in hard gelatin capsules. The crossover study was done using two healthy subjects who were not using curcumin in their food preparations or consuming Curcumin supplements. On the day of the study, 7 ml of blood was collected in EDTA tubes to permit establishment of baseline value. Curcumin-SR capsules were administered after breakfast and blood samples were drawn as before at 1, 2, 4, 7, and 9 hrs post-dose. The samples were stored on ice protected from light and the plasma was separated by centrifugation within 1 hr of collection and stored at −70° C. until analysis. After a 7-day washout period the protocol was repeated for the control Curcumin powder capsules.
Hydrolysis of Curcumin conjugates and extraction of Curcumin from the plasma were done based on the method described by Vareed et at. (Pharamcokinetics of curcumin conjugate metabolites in healthy human subjects, Cancer Epidemiol Biomarkers, 17: 1411-1417, 2008). One ml of the plasma was incubated with 2000 units of β-glucuronidase and 260 units sulfatase at 37° C. for 3.5 hrs. The samples were extracted three times with ethyl acetate/methanol (95:5) and the solvents were evaporated under nitrogen protected from light. […] Curcumin was quantified using reverse-phase HPLC as described above.

For series [5] the following is noted: human studies, background; cited from earlier work.
A short description of series [6]: PQQ-SR bioavailability pilot human uptake study. It is filed as in vivo. Particulars: free plasma PQQ. As for the experimental part:
as §1, with “PQQ-SR” for “Curcumin-SR”, “PQQ” for “Curcumin”, “40” for “250”, “PQQ” for “total Curcuminoids”, “subjects.” for “subjects who were not using curcumin in their food preparations or consuming Curcumin supplements.”
Plasma PQQ was extracted using n-butanol and HCl followed by SepPak C-18 clean up of the extract as described by Suzuki et al. (Extractions of pyrroloquinoline quinone from crude biological samples, Suzuki, O., et al., Life Sci., 47: 2135-41, 1990). PQQ was estimated by using the enzymatic method as described by Geiger and Gorisch (Enzymatic determination of pyrroloquinoline quinone using crude membranes from E. coli, Geiger, O. and Gorisch, H., Anal Biochem., 164: 418-23, 1987). The method measures only the free PQQ in the plasma.

Series [7] is described as follows: PQQ-SR dissolution test (SGF then SIF). It is filed as physicochemical. The following applies: SGF 2 hr then SIF pH 6.5, 20 mg PQQ. As for the experimental part: The in vitro dissolution study was performed using the Varian 7020 dissolution tester with the basket configuration at 37° C., 100 rpm. The samples equivalent to 20 mg PQQ filled in hard gelatin capsules were used for the study. The capsules were introduced into 750 ml of 0.1N HCl (simulated gastric fluid without enzymes, SGF) maintained at 37° C. At the end of 1 and 2 hrs, 2 ml of the sample was withdrawn and filtered through 10μ-syringe filter. The removed volume was replaced each time with fresh medium. PQQ was determined by spectrophotometry at 330 nm.
At the end of 2 hr, the pH of the medium was adjusted to 6.5 (Simulated intestinal fluid without enzymes, SIF) with an appropriate amount of 0.2M tribasic sodium phosphate solution equilibrated to 37° C., Polysorbate 80 at 0.25% (simulating fed state) dissolved in water was added to the medium. Aliquots were withdrawn at 4, 6, 9, and 12 hrs for analysis as described before and the removed volume was replaced with fresh medium each time.

`Oc1ccc(/C=C/c2cc(O)cc(O)c2)cc1` [Resveratrol powder, 3,4′,5-trihydroxy-trans-stilbene]: in series [1], the “dissolution of dose in 4 hours” value stood at 100%. Further, the “average area under the curve AUC0-24hr for free Resveratrol” value in series [2] amounted to 2290 ng·h/mL.
On to `COc1cc(/C=C/C(=O)CC(=O)/C=C/c2ccc(O)c(OC)c2)ccc1O` [Curcumin powder, Curcumin], for which the “dissolution profile in words” value in series [3] was “very little is micronized or released at the gastric pH”. Moreover, the “average area under the curve AUC0-9hr” value in series [4] worked out at 47.78 ng·h/mL.
Take `O=C(O)c1cc(C(=O)O)c2c(n1)C(=O)C(=O)c1cc(C(=O)O)[nH]c1-2` [control PQQ powder, Pyrroloquinoline quinone]: in series [5], the “time after ingestion at which maximum plasma level was reached” value was 2 h and the “time by which levels reached baseline” value is ≤ 8 h. For the same molecule, the “time by which plasma level reached near baseline” value in series [6] was ≤ 9 h. Further, the “average area under the curve AUC0-9hr” value in series [6] (40 mg oral, 0-9 hr) worked out at 31.41 ng·h/mL. Besides, the Tmax in series [6] (human, 40 mg PQQ oral, two healthy subjects) worked out at 2 h. The “dose in solution by 4 hrs” value in series [7] is given as 100%.
